Structures can show the parent of a compound that is named as a salt. Where two headings read alike, the source gives them in different places.
Key:
[1] = test system: bleeding time in male SD rats; details: rat, in vivo, po
Method: (§1) 5-week-old male SD rats (body weight is 138 to 152 g), 6 rats per one group, were used. […] 50 minutes after the administration, 50 mg/kg of pentobarbital sodium was intraperitoneally injected into the rat.
(§2) 10 minutes later, the tail was cut off at a position of 2 mm from the tip using a surgical blade, and was immediately immersed into a glass container (Magnus bath) filled with physiological saline maintained at approximately 37° C. to observe until the rat stopped bleeding.
(§3) The bleeding time was taken as the time from the tail cutting to the cessation of bleeding. The tail was marked at a position of 5 cm from the tip in advance, and was immersed in the physiological saline in the glass container at the depth of 5 cm from the surface. The maximum observation time was defined as 60 minutes after the tail cutting.

[2] = Stability test in acidic or basic solution (half-life by liquid chromatography); type: physicochemical; details: time to 50% residual rate; for Half-life, pH 3.4 solution: phosphate buffer pH 3.4; for Half-life, pH 3.4 solution / Half-life, pH 7.3 solution: 1 mmoL/L, 37° C.; for Half-life, pH 7.3 solution: phosphate buffer pH 7.3
Method: The test compounds were dissolved in an acidic solution (phosphate buffer (pH3.4)) and in a basic solution (phosphate buffer (pH7.3)) at the concentration of 1 mmoL/L. Immediately after they were dissolved, each solution was analyzed with liquid chromatography using an acidic solution (phosphate buffer (pH3.4)) or basic solution (phosphate buffer (pH7.3)) as an eluent. The peak area of the test compounds was measured as the initial value. Furthermore, a time-course analysis with liquid chromatograpy was conducted to measure the peak area at each time point. The solution containing the test compound was kept in an incubator at 37° C. Based on the measured peak area of the test compounds, the percentage (%) of the peak area at each measurement time point was calculated, taking the peak area of the initial value as 100(%). The half-life (the time to show a 50% residual rate of the test compounds) of the test compounds was further calculated, and its stability was evaluated based on the half-life.

[3] = Bioabsorption: plasma concentration measurement in rats with oral administration; type: in vivo, rat; details: for concentration at 0.25 h: read-out: plasma concentration, Mean, time point 0.25 h; for concentration at 0.5 h: read-out: plasma concentration, Mean, time point 0.5 h; for concentration at 1 h: read-out: plasma concentration, Mean, time point 1.0 h; for concentration at 2 h: read-out: plasma concentration, Mean, time point 2.0 h; for concentration at 4 h: read-out: plasma concentration, Mean, time point 4.0 h; for concentration at 6 h: read-out: plasma concentration, Mean, time point 6.0 h; for concentration at 8 h: read-out: plasma concentration, Mean, time point 8.0 h; for AUC: read-out: AUC (area under the plasma concentration-time curve); for Cmax: read-out: Cmax (maximum plasma concentration); for Tmax: read-out: Tmax (time required to reach the maximum plasma concentration)
Method: We conducted a plasma concentration measurement in rats with oral administration to compare the absorption of the compound of the present invention (compound No. 451) with the comparative compound A and B.
6-week-old male SD rats (body weight is 200 to 230 g) were used for this test (3 rats per one group). The required amount of test compound was weighed and pulverized in an agate mortar. Then, a 0.5 (w/v) % methyl cellulose solution was added to prepare the suspension at the concentration of 10 mg/5 mL. 5 mL per kg body weight of the suspension was orally administered to rats once using a feeding tube for rats. About 0.3 mL of blood was sampled from the caudal vein using a heparinized glass tube at 0.25, 0.5, 1, 2, 4, 6, 8, 12 and 24 hours after the administration, and was centrifuged to obtain plasma.
30 μL of methanol and 300 µL of acetonitrile were added to 120 μL of the obtained plasma, and mixed with a Vortex mixer for 15 seconds. The sample was centrifuged to obtain 300 μL of the supernatant. The supernatant was dried, and 120 μL of an eluent was added thereto, and then mixed with a Vortex mixer for 15 seconds. After the mixture was centrifuged, the amount of each test compound remaining in the plasma was determined with liquid chromatography.
40 μL of the sample, as prepared above, was applied to liquid chromatography with the following conditions to conduct the measurement.
• Column: InertsiL (registered trademark) ODS-3 4.6 mmI.D.×250 mm; • Column temperature: 40° C.; • Eluent: Solution A (10 mmoL/L ammonium acetate:methanol=50:50), and Solution B (10 mmoL/L ammonium acetate:methanol=10:90); • Gradient condition (eluent composition): solution A→20 min.→solution B (5 min. elution)→1 min.→solution A (12 min. elution); • Flow rate: 1.0 mL; and • Detection wavelength: 314 nm.
• Column: InertsiL (registered trademark) ODS-3 4.6 mmI.D.×150 mm; • Column temperature: 40° C.; • Eluent: Solution A (aqua:methanol:acetic acid=90:10:0.5), and Solution B (aqua:methanol:acetic acid=10:90:0.5); • Gradient condition (eluent composition): solution A→20 min.→solution B (5 min. elution)→1 min.→solution A (12 min. elution); • Flow rate: 1.0 mL; and • Detection wavelength: 323 nm.
• Column: InertsiL (registered trademark) ODS-3 4.6 mmI.D.×150 mm; • Column temperature: 40° C.; • Eluent: Solution A (pH=2.2 phosphate buffer:acetonitrile=90:10), and Solution B (pH=2.2 phosphate buffer:acetonitrile=10:90); • Gradient condition (eluent composition): Solution A→10 min.→Solution B (2.5 min. elution)→0.5 min.→Solution A (9 min. elution); • Flow rate: 2.0 mL; and
Detection wavelength: 315nm.
Based on the peak area obtained in the liquid chromatography analysis with respect to 1 μg/mL of each test compound in plasma, the plasma concentration (μg/mL) at each time point was calculated.

[4] = test system: bleeding time in male SD rats; assay: Effect on bleeding time in rats (tail cutting); details: 30 mg/kg oral, max observation 60 min
Method: as §1, §2, §3

[5] = test system: circulatory insufficiency model of rats induced by injection of lauric-acid into their femoral artery; assay: Circulatory insufficiency model induced by lauric-acid in rats (lesion index); type: in vivo, rat; parameters: key: summed toe lesion grades, +5 if heel reached; max 25 points; details: male Wistar rats, average, max 25 points
Method: We performed this test in order to evaluate the pharmacological effect of the compounds of the present invention using a circulatory insufficiency model of rats induced by injection of lauric-acid into their femoral artery.
13-week-old male Wistar rats (body weight is 280 to 316 g), 8 rats per one group, were used. The rats were held in a supine position under anesthesia due to administration of 40 mg/kg of sodium pentobarbital by intraperitoneal injection. Then, the right femoral area was incised, thereby injecting 0.15 mL of 10 mg/mL lauric-acid solution into the femoral artery in order to induce lower limb gangrene caused by the peripheral vascular disorder. A few drops of instant adhesive (Aron-alpha; registered trademark) were used to stop bleeding, followed by topical application of antibiotics (potassium penicillin G solution) to prevent infection, and the incision site was then sutured.
The suspension was administered, by means of multiple oral dosing, 1 hour prior to and 3 hours after injection of lauric-acid and twice daily (at 10:00 and 17:00) for the following 9 days, at the dose of 30 mg/kg for each compound. […] The suspension was administered orally 3 hours prior to injection of lauric-acid at the dose of 300 mg/kg.
The extent of lesions was evaluated 3 days and 10 days after injection of lauric acid by the following criteria:
The lesion of each toe was graded and the total points of 5 toes were use as a lesion index, wherein 5 points were further added when the lesion reached the heel (i.e. the maximum lesion index was 25 points).
The shown number refers to the average value of the lesion index obtained from the evaluation.

[6] = phosphate buffer pH 3.4, 37° C., read-out: Half-life, pH 3.4 solution (converted)
[7] = phosphate buffer pH 7.3, 37° C., read-out: Half-life, pH 7.3 solution (converted)
[8] = male, SD, rat, plasma, 10 mg/kg, 0.25 h
[9] = male, SD, rat, plasma, 10 mg/kg, 0.5 h
[10] = male, SD, rat, plasma, 10 mg/kg, 1.0 h
[11] = male, SD, rat, plasma, 10 mg/kg, 2.0 h
[12] = male, SD, rat, plasma, 10 mg/kg, 4.0 h
[13] = male, SD, rat, plasma, 10 mg/kg, 6.0 h
[14] = male, SD, rat, plasma, 10 mg/kg, 8.0 h
[15] = male, SD, rat, plasma, 10 mg/kg, from administration to 24 hours
[16] = male, SD, rat, plasma, 10 mg/kg
[17] = 60 min between oral dosing and the tail cutting
[18] = 180 min between oral dosing and the tail cutting
[19] = 30 mg/kg multiple oral dosing (1 h prior to and 3 h after lauric-acid, then twice daily for 9 days), 10 days after lauric-acid injection
[20] = 30 mg/kg multiple oral dosing (1 h prior to and 3 h after lauric-acid, then twice daily), 3 days after lauric-acid injection

SMILES: CC#CCC(C)[C@H](O)/C=C/[C@@H]1[C@H]2c3cccc(CCCC(=O)O)c3O[C@H]2C[C@H]1O (mixture of isomers) [beraprost sodium]
- Bleeding time ([1]; 1 mg/kg, 60 min): 42.2 min

SMILES: O=c1oc2ccc(Cl)cc2c(O)c1O [B]
- half-life at 1 mmoL/L [2, 6]: 53 h
- half-life at 1 mmoL/L [2, 7]: 70 h
- concentration at 0.25 h [3, 8]: 7400 ng/mL
- concentration at 0.5 h [3, 9]: 4100 ng/mL
- concentration at 1 h [3, 10]: 2000 ng/mL
- concentration at 2 h [3, 11]: 1400 ng/mL
- concentration at 4 h [3, 12]: 300 ng/mL
- concentration at 6 h [3, 13]: 100 ng/mL
- concentration at 8 h [3, 14]: 100 ng/mL
- concentration at 12 h ([3]; male, SD, rat, plasma, 10 mg/kg, 12.0 h, read-out: plasma concentration, Mean, time point 12.0 h): 0 ng/mL
- concentration at 24 h ([3]; male, SD, rat, plasma, 10 mg/kg, 24.0 h, read-out: plasma concentration, Mean, time point 24.0 h): 0 ng/mL
- AUC [3, 15]: 8300 ± 2600 ng·h/mL
- Cmax [3, 16]: 7400 ± 200 ng/mL
- Tmax [3, 16]: 0.25 h

SMILES: CCCCCCOc1c(O)c2ccc(O)cc2oc1=O [Compound 125]
- Half-life, pH 3.4 solution [2]: >>100 hr
- Half-life, pH 7.3 solution [2]: >>100 hr
- Bleeding time [4, 17]: 8.0 min
- Bleeding time [4, 18]: 8.4 min
- Lesion Index after 10 days [5, 19]: 8.1
- Lesion Index after 3 days [5, 20]: 2.6

SMILES: CCOc1c(O)c2ccc(OC)cc2oc1=O [Compound 144]
- Bleeding time [4, 17]: 8.9 min
- Bleeding time [4, 18]: 8.2 min
- Lesion Index after 10 days [5, 19]: 7.2
- Lesion Index after 3 days [5, 20]: 2.5

SMILES: CCCCCCOc1c(O)c2ccc(OCCO)cc2oc1=O [Compound 445]
- Bleeding time [4, 17]: 9.1 min
- Bleeding time [4, 18]: 8.3 min
- Lesion Index after 10 days [5, 19]: 7.5
- Lesion Index after 3 days [5, 20]: 2.7

SMILES: CCCCCCCCOc1c(O)c2ccc(OCCO)cc2oc1=O [Compound 451]
- Half-life, pH 3.4 solution [2]: >>100 hr
- Half-life, pH 7.3 solution [2]: >>100 hr
- Cmax (maximum plasma concentration) [3]: 25100 ± 13300 ng/mL
- Tmax (time required to reach the maximum plasma concentration) [3]: 0.3 ± 0.1 h
- plasma concentration, Mean, time point 0.25 h ([3]; 0.25 h): 23600 ng/mL
- plasma concentration, Mean, time point 0.5 h ([3]; 0.5 h): 23600 ng/mL
- plasma concentration, Mean, time point 1.0 h ([3]; 1.0 h): 17900 ng/mL
- plasma concentration, Mean, time point 2.0 h ([3]; 2.0 h): 11800 ng/mL
- plasma concentration, Mean, time point 4.0 h ([3]; 4.0 h): 9200 ng/mL
- plasma concentration, Mean, time point 6.0 h ([3]; 6.0 h): 6800 ng/mL
- plasma concentration, Mean, time point 8.0 h ([3]; 8.0 h): 3000 ng/mL
- plasma concentration, Mean, time point 12.0 h ([3]; 12.0 h): 1200 ng/mL
- plasma concentration, Mean, time point 24.0 h ([3]; 24.0 h): 500 ng/mL
- AUC (area under the plasma concentration-time curve) ([3]; from administration to 24 hours): 99500 ± 64400 ng·h/mL
- Bleeding time [4, 17]: 7.8 min
- Bleeding time [4, 18]: 7.5 min
- Lesion Index after 10 days [5, 19]: 7.2
- Lesion Index after 3 days [5, 20]: 2.6

SMILES: CCCCCCCCOc1c(O)c2ccc(OCCC(=O)O)cc2oc1=O [Compound 525]
- Half-life, pH 3.4 solution [2]: >>100 hr
- Half-life, pH 7.3 solution [2]: >>100 hr
- Bleeding time [4, 17]: 8.5 min
- Bleeding time [4, 18]: 8.1 min
- Lesion Index after 10 days [5, 19]: 7.8
- Lesion Index after 3 days [5, 20]: 2.9

SMILES: CC(=O)Oc1ccccc1C(=O)O [aspirin]
- Bleeding time ([1]; 100 mg/kg, 60 min): 40.2 min

SMILES: O=C1CCc2cc(OCCCCc3nnnn3C3CCCCC3)ccc2N1 [cilostazol]
- Bleeding time ([1]; 300 mg/kg, 60 min): 50.1 min

SMILES: O=c1oc2ccccc2c(O)c1O [comparative compound A]
- half-life at 1 mmoL/L [2, 6]: 30 h
- half-life at 1 mmoL/L [2, 7]: 65 h
- plasma concentration, Mean, time point 12.0 h ([3]; 12.0 h): Not detected
- plasma concentration, Mean, time point 24.0 h ([3]; 24.0 h): Not detected
- concentration at 0.25 h [3, 8]: 600 ng/mL
- concentration at 0.5 h [3, 9]: 300 ng/mL
- concentration at 1 h [3, 10]: 300 ng/mL
- concentration at 2 h [3, 11]: 300 ng/mL
- concentration at 4 h [3, 12]: 300 ng/mL
- concentration at 6 h [3, 13]: 300 ng/mL
- concentration at 8 h [3, 14]: 200 ng/mL
- AUC [3, 15]: 2200 ± 100 ng·h/mL
- Cmax [3, 16]: 600 ± 100 ng/mL
- Tmax [3, 16]: 0.25 h

SMILES: Clc1ccccc1CN1CCc2sccc2C1 [ticlopidine hydrochloride, reference compound]
- Bleeding time ([1]; 300 mg/kg, 180 min): 36.1 min
- Lesion Index after 3 days ([5]; positive control, 300 mg/kg orally 3 hours prior to lauric-acid injection, 3 days after injection): 2.8
- Lesion Index after 10 days ([5]; positive control, 300 mg/kg orally 3 hours prior to lauric-acid injection, 10 days after injection): 7.4

Reference: patent publication US20110021621A1, “Drug for treating circulatory insufficiency” (ACTIVUS PHARMA CO., LTD., priority 2005, published 2011)
